Columns and labels:
[1] = molecular target: T1, human 26S proteasome, chymotrypsin-like (CHTL) site, β5 subunit (Homo sapiens, UniProt P28074); assay: fluorogenic peptidase assay, Suc-LLVY-AMC; format: biochemical; details: read-out: % inhibition at 1 mM
T1 construct: gene PSMB5; commercial purified 26S complex (BostonBiochem); beta subunits mature with N-terminal Thr; with Proteasome subunit beta type-7; Proteasome subunit beta type-6
T1 sequence (P28074 60-263): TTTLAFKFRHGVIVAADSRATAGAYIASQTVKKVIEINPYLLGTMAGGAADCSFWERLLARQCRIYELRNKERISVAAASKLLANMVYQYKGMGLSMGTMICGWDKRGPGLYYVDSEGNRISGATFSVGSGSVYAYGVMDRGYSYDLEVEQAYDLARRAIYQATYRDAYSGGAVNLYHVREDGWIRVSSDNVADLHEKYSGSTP

[2] = molecular target: T2, human 26S proteasome, trypsin-like (TL) site, β2 subunit (Homo sapiens, UniProt Q99436); assay: fluorogenic peptidase assay, Z-GGR-AMC; format: biochemical; details: read-out: % inhibition at 1 mM
T2 construct: gene PSMB7; commercial purified 26S complex (BostonBiochem); beta subunits mature with N-terminal Thr; with Proteasome subunit beta type-5; Proteasome subunit beta type-6
T2 sequence (Q99436 44-277): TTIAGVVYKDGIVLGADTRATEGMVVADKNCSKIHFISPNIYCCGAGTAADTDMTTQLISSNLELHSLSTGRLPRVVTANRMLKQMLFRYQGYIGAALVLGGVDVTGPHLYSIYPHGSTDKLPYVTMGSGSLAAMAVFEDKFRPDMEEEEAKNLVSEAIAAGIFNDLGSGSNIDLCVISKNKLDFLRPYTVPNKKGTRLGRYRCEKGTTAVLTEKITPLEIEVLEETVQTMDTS

With `COc1cc(/C=C/C(=O)O)ccc1O` [ferulic acid, 4-hydroxy-3-methoxycinnamic acid] as the compound, how does the inhibition at 1000 µM [1] read?
Its inhibition at 1000 µM is 31%.

What about the inhibition at 1000 µM [2] of the same compound?
The inhibition at 1000 µM was 30%.
